From patent publication US20120003270A1, “6-SUBSTITUTED ISOFLAVONOID COMPOUNDS AND USES THEREOF” (priority 2008, published 2012)
pIC50: −log10 of the molar value.

What was measured:
TXA2 = TXA2 synthesis in RAW 264.7 (ELISA); format: cell-based, mouse; conditions: LPS 50 ng/ml, 16 hrs
Experimental: The mouse macrophage cell line RAW 264.7 was cultured in DMEM supplemented with foetal calf serum (FCS), 2 mM glutamine and 50 U/ml penicillin/streptomycin. Cells were treated with either test compounds (in 0.025% DMSO) or vehicle alone, and added one hour before 50 ng/ml LPS. After incubation for 16 hrs, culture media was collected for PGE2 or TXB2 measurement by ELISA (Cayman Chemical), and TNFα measurement using an ELISA (Becton Dickinson).

5-lipoxygenase (5-LO) = assay: Synthesis of LTB4 and its metabolites in calcium ionophore-stimulated neutrophils (HPLC); format: cell-based, human
Experimental: The pathway for LTB4 synthesis involves initial release of AA from phospholipids by a Ca-dependent PLA2. The free AA is then oxygenated at by 5-LO (requiring enzyme activation by FLAP) to generate an epoxide intermediate (LTA4). LTA4 is then converted to LTB4 by LTA4 hydrolase. LTB4 is metabolised (and deactivated) by a cytochrome P-(CYP) 450 […] to produce 20-hydroxy and 20-carboxy metabolites. These metabolites are also measured in the HPLC assay.
Neutrophils were isolated from citrated human venous blood to >90% purity by centrifugation through Ficoll, dextran sedimentation and lysis of erythrocytes (Boyum 1986). Cells were washed in HEPES buffered Hanks solution (HBHS) and then suspended at 4.5 million cells/mL in HBHS containing 0.1% BSA (HBHS+BSA).
Experiments had been carried out previously to optimise the stimulation of neutrophils by calcium ionophore. At 37° C., 900 μL of cell suspension (4 million cells) was incubated with 3′,7-dihydroxyisoflav-3-ene (or vehicle) in 10 μL DMSO for 5 min before addition of 100 μL of 25 ng/μL calcium ionophore (free acid form, Sigma) with 0.5% DMSO in HBHS containing 0.1% bovine serum albumin (HBHS+BSA). The cells were incubated for 10 min then pelleted by centrifugation at 1200× g at 4° C. for 5 min, and the cell free supernatant used to quantitate the levels of LTB4 and its metabolites.
To each 900 μL aliquot of the supernatant, 25 μL of 2.5 ng/μL prostaglandin B2 (PGB2) in ethanol was added as internal standard. The solution was acidified to […] with 2M formic acid and the mixture extracted with 2 mL ethyl acetate and vigorous vortexing. The organic layer was collected and dried under nitrogen in a glass vial before being reconstituted in 50 μL of the reconstitution solution (water:methanol:acetonitrile at 2:1:1).
Analysis was carried out using a HPLC system with a 125-4 LiChrospher®100 RP-18 (5 μm) column (Agilent Technologies) and a gradient system adapted from a published method (Mita et al. 1988) to separate LTB4, its oxidation products 20-hydroxy LTB4 (20-OH-LTB4) and 20-carboxy LTB4 (20-COOH-LTB4), as well as PGB2. At 1 ml/min flow rate, a combination of three different mobile phase solutions were used. UV absorbance was monitored at 270 nm, and LTB4 and its metabolites were quantitated by comparison of peak areas with that of internal standard and a standard curve prepared earlier.

[1] = tested on: low density lipoprotein (LDL); assay: Cu2+-induced oxidation of LDL (FOX assay); format: biochemical; parameters: lipid peroxide formation: unit not given here
Experimental: Blood was collected by venipuncture and plasma separated by centrifugation. LDL was then isolated from plasma using a 4-step sodium chloride density gradient and ultracentrifuged at 200,000 g for 20 hours at 4° C. The collect LDL was purified by passage through gel filtration PD10 column to remove excess salt and EDTA, and stored in the dark at 4° C. to prevent auto-oxidation and used with two weeks of isolation. The LDL cholesterol content was measure using a standard enzymatic method and protein concentration determined by the Lowry method using BSA as the standard.
On the day of each experiment a 2 mL aliquot of LDL was passed through a second PD10 column and diluted with chelex treated PBS (100 mM) to give a standard protein concentration of 0.1 mg/mL, ie final concentration per reaction. Oxidation reactions were initiated by the addition of freshly prepared Cu^2+ solution, such that the final concentration of CuSO4 was 5 μM. […] The extent of lipoprotein oxidation was determined by measuring the formation of lipid-peroxides on aliquots removed every 30-minute over a 3-hour period. Peroxides were determined at each time point by the ferrous oxidation-xylenol orange (FOX) assay using standard hydrogen peroxide curve (5 to 200 μM). Compound (1) was examined in at least two separate experiments performed on separate days.

## CN(C)Cc1cc2c(cc1O)OCC(c1ccc(O)cc1)=C2 [Compound (1)]
TXA2; 1 μM
  TXB2: 1333.17 ± 121.78 pg/mL
TXA2; 10 μM
  TXB2: 1149.14 ± 480.27 pg/mL
5-lipoxygenase (5-LO); 0.1 μM
  20-COOH-LTB4, % of maximum release: 82.0%
  20-OH-LTB4, % of maximum release: 95.2%
  LTB4, % of maximum release: 94.3%
5-lipoxygenase (5-LO); 1 μM
  20-COOH-LTB4, % of maximum release: 99.6%
  20-OH-LTB4, % of maximum release: 77.7%
  LTB4, % of maximum release: 78.1%
5-lipoxygenase (5-LO); 10 μM
  20-COOH-LTB4, % of maximum release: 0.0%
  20-OH-LTB4, % of maximum release: 0.0%
  LTB4, % of maximum release: 0.0%
5-lipoxygenase (5-LO); Neutrophil, human neutrophils, calcium ionophore, read-out: IC50 for the production of LTB4
  pIC50: 5.37
[1]; Compound (1) 100 μM + Cu++ 5 μM, no LDL, 0 min
  lipid peroxide formation: 10.13 ± 2.82
[1]; Compound (1) 100 μM + Cu++ 5 μM, no LDL, 30 min
  lipid peroxide formation: 32.09 ± 11.15
[1]; Compound (1) 100 μM + Cu++ 5 μM, no LDL, 60 min
  lipid peroxide formation: 46.21 ± 20.68
[1]; Compound (1) 100 μM + Cu++ 5 μM, no LDL, 90 min
  lipid peroxide formation: 58.19 ± 28.98
[1]; Compound (1) 100 μM + Cu++ 5 μM, no LDL, 120 min
  lipid peroxide formation: 69.46 ± 35.33
[1]; Compound (1) 100 μM + Cu++ 5 μM, no LDL, 180 min
  lipid peroxide formation: 76.60 ± 40.17
[1]; LDL 0.1 mg/mL, CuSO4 5 μM, read-out: IC50, concentration at which 50% of the LDL oxidation was inhibited
  pIC50: 6.24
[1]; LDL 0.1 mg/ml + compound (1) 0.1 μM + Cu++ 5 μM, 0 min
  lipid peroxide formation: 11.54 ± 1.96
[1]; LDL 0.1 mg/ml + compound (1) 0.1 μM + Cu++ 5 μM, 30 min
  lipid peroxide formation: 14.50 ± 0.28
[1]; LDL 0.1 mg/ml + compound (1) 0.1 μM + Cu++ 5 μM, 60 min
  lipid peroxide formation: 26.86 ± 0.65
[1]; LDL 0.1 mg/ml + compound (1) 0.1 μM + Cu++ 5 μM, 90 min
  lipid peroxide formation: 89.43 ± 17.03
[1]; LDL 0.1 mg/ml + compound (1) 0.1 μM + Cu++ 5 μM, 120 min
  lipid peroxide formation: 161.78 ± 1.44
[1]; LDL 0.1 mg/ml + compound (1) 0.1 μM + Cu++ 5 μM, 180 min
  lipid peroxide formation: 193.20 ± 25.05
[1]; LDL 0.1 mg/ml + compound (1) 1.0 μM + Cu++ 5 μM, 0 min
  lipid peroxide formation: 11.31 ± 1.95
[1]; LDL 0.1 mg/ml + compound (1) 1.0 μM + Cu++ 5 μM, 30 min
  lipid peroxide formation: 12.83 ± 2.28
[1]; LDL 0.1 mg/ml + compound (1) 1.0 μM + Cu++ 5 μM, 60 min
  lipid peroxide formation: 13.11 ± 2.70
[1]; LDL 0.1 mg/ml + compound (1) 1.0 μM + Cu++ 5 μM, 90 min
  lipid peroxide formation: 14.78 ± 1.06
[1]; LDL 0.1 mg/ml + compound (1) 1.0 μM + Cu++ 5 μM, 120 min
  lipid peroxide formation: 20.39 ± 2.95
[1]; LDL 0.1 mg/ml + compound (1) 1.0 μM + Cu++ 5 μM, 180 min
  lipid peroxide formation: 102.30 ± 37.30
[1]; LDL 0.1 mg/ml + compound (1) 10 μM + Cu++ 5 μM, 0 min
  lipid peroxide formation: 11.54 ± 1.96
[1]; LDL 0.1 mg/ml + compound (1) 10 μM + Cu++ 5 μM, 30 min
  lipid peroxide formation: 16.77 ± 2.55
[1]; LDL 0.1 mg/ml + compound (1) 10 μM + Cu++ 5 μM, 60 min
  lipid peroxide formation: 19.56 ± 4.55
[1]; LDL 0.1 mg/ml + compound (1) 10 μM + Cu++ 5 μM, 90 min
  lipid peroxide formation: 20.84 ± 5.30
[1]; LDL 0.1 mg/ml + compound (1) 10 μM + Cu++ 5 μM, 120 min
  lipid peroxide formation: 22.80 ± 3.39
[1]; LDL 0.1 mg/ml + compound (1) 10 μM + Cu++ 5 μM, 180 min
  lipid peroxide formation: 20.30 ± 4.97
[1]; LDL 0.1 mg/ml + compound (1) 100 μM + Cu++ 5 μM, 0 min
  lipid peroxide formation: 13.83 ± 1.77
[1]; LDL 0.1 mg/ml + compound (1) 100 μM + Cu++ 5 μM, 30 min
  lipid peroxide formation: 29.71 ± 6.85
[1]; LDL 0.1 mg/ml + compound (1) 100 μM + Cu++ 5 μM, 60 min
  lipid peroxide formation: 39.57 ± 10.67
[1]; LDL 0.1 mg/ml + compound (1) 100 μM + Cu++ 5 μM, 90 min
  lipid peroxide formation: 78.85 ± 33.54
[1]; LDL 0.1 mg/ml + compound (1) 100 μM + Cu++ 5 μM, 120 min
  lipid peroxide formation: 54.24 ± 9.58
[1]; LDL 0.1 mg/ml + compound (1) 100 μM + Cu++ 5 μM, 180 min
  lipid peroxide formation: 62.50 ± 19.58
